Experimental data from ChEMBL document CHEMBL1909046, “DrugMatrix in vitro pharmacology data”.

Experiments:
[1] = biological target: Beta-1 adrenergic receptor (Homo sapiens, UniProt P08588); test: DRUGMATRIX: Adrenergic beta1 radioligand binding (ligand: [125I] Cyanopindolol); assay type: cell membranes, CHO-K1, Membrane; details: cho-k1; Not Active = under 50% inhibition at 10 µM
[2] = biological target: T1, Thromboxane-A synthase (Homo sapiens, UniProt P24557); test: biochemical; assay type: tissue-based, Platelet;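 further: enzyme inhibition assay with PGH2 supplied as substrate; in other assays of this panel Not Active means under 50% inhibition at 10 µM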
T1 sequence (P24557 whole entry): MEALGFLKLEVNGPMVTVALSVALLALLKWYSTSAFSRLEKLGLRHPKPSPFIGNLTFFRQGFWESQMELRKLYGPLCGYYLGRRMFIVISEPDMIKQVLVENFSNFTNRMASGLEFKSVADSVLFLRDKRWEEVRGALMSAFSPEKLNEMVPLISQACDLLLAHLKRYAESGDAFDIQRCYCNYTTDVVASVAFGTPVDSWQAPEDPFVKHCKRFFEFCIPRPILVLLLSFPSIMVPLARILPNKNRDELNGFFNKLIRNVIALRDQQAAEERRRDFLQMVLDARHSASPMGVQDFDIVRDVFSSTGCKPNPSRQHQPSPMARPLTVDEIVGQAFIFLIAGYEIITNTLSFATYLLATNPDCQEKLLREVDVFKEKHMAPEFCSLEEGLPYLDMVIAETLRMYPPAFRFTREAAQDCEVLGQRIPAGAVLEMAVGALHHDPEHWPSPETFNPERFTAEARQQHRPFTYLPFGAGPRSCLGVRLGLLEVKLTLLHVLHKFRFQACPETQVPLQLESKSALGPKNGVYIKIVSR

[3] = biological target: Cannabinoid receptor 1 (Homo sapiens, UniProt P21554); assay type: cell membranes, Membrane; details: chem-1; further: in other assays of this panel Not Active means under 50% inhibition at 10 µM
[4] = biological target: T2, Muscarinic acetylcholine receptor M5 (Homo sapiens, UniProt P08912); assay type: cell membranes, Membrane; details: cho-k1; further: in other assays of this panel Not Active means under 50% inhibition at 10 µM
T2 sequence (P08912 whole entry): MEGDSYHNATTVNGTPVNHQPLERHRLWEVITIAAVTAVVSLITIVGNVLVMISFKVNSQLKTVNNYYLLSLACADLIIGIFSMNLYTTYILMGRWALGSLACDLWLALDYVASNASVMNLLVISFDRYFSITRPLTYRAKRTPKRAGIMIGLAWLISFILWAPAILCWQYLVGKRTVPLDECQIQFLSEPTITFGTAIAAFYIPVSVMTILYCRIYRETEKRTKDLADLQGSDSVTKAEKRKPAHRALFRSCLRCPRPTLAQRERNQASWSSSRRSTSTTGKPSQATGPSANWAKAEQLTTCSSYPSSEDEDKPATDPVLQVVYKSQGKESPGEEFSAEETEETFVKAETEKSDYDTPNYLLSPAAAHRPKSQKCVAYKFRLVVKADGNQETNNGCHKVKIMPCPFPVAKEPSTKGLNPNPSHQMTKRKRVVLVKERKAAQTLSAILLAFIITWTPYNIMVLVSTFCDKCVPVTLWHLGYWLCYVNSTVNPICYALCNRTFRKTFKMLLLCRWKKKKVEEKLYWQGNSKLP

[5] = biological target: T3, Progesterone receptor (Bos taurus, UniProt Q690N0); test: DRUGMATRIX: Progesterone radioligand binding (ligand: [3H] R-5020); assay type: tissue-based, Uterus; details: Not Active = under 50% inhibition at 10 µM
T3 sequence (Q690N0 whole entry): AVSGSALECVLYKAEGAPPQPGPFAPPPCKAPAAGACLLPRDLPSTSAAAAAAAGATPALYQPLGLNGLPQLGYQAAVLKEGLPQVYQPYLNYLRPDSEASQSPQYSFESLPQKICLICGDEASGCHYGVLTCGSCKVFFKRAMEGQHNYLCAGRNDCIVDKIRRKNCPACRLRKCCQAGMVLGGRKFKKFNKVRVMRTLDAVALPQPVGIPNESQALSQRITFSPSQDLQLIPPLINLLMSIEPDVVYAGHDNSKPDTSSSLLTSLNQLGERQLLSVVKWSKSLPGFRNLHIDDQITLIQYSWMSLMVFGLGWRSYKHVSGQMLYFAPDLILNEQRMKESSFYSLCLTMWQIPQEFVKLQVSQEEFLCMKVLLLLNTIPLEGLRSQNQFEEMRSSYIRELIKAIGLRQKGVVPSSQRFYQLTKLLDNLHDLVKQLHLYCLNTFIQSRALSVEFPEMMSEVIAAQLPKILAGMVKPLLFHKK

[6] = biological target: Mitogen-activated protein kinase 14 (Homo sapiens, UniProt Q16539); set-up: species or system Escherichia coli;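 further: inhibition of p38alpha enzyme activity in a biochemical kinase assay, with myelin basic protein serving as substrate; in other assays of this panel Not Active means under 50% inhibition at 10 µM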
[7] = biological target: Epidermal growth factor receptor (Homo sapiens, UniProt P00533); test: DRUGMATRIX: Protein Tyrosine Kinase, EGF Receptor enzyme inhibition (substrate: Poly(Glu:Tyr)); assay type: cell-based, Insect cells; details: Not Active = under 50% inhibition at 10 µM

Mitogen-activated protein kinase 14, sequence (Q16539 whole entry): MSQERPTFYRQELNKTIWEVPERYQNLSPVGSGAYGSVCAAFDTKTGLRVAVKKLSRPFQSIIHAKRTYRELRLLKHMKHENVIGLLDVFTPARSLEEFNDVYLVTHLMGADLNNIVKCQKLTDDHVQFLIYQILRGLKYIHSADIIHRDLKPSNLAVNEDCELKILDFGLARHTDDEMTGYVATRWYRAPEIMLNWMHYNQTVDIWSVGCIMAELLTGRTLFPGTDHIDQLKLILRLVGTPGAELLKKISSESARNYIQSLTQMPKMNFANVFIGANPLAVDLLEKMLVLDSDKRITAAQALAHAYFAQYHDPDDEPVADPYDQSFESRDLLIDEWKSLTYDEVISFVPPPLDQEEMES
Beta-1 adrenergic receptor, sequence (P08588 whole entry): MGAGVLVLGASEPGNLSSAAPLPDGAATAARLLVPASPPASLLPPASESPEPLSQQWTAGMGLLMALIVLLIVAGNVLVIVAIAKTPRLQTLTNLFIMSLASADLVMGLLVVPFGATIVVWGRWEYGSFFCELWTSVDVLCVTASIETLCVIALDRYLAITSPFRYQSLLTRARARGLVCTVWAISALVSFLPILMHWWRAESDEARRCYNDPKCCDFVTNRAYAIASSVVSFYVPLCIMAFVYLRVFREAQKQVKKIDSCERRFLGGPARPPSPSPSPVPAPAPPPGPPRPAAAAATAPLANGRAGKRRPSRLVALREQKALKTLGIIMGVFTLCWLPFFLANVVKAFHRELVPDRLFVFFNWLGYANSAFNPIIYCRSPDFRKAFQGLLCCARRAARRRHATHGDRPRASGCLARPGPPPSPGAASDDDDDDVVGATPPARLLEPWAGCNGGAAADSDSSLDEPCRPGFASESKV
Cannabinoid receptor 1, sequence (P21554 whole entry): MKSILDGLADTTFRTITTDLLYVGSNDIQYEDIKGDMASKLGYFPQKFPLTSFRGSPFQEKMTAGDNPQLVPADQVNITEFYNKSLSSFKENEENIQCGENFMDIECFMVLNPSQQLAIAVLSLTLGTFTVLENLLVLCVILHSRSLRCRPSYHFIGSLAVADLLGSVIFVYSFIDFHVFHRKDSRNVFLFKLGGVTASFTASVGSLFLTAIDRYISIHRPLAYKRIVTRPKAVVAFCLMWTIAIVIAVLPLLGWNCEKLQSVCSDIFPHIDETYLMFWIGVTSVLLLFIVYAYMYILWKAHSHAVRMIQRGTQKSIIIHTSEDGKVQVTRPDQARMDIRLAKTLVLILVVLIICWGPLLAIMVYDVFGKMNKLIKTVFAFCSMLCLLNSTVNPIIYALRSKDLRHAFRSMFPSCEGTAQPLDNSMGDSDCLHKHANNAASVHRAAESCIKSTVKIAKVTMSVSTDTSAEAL

| Compound | IC50 [1] | IC50 ([2]; platelet) | IC50 [3] | IC50 [4] | IC50 [5] | IC50 [6] | IC50 ([7]; insect cells) | IC50 ([6]; read-out: IC50) [µM] | IC50 ([7]; read-out: IC50) [µM] | Ki [1] | Ki ([2]; platelet) | Ki [3] | Ki [4] | Ki [5] | Ki [6] | Ki ([7]; insect cells) | IC50 ([2]; read-out: IC50) [µM] |
| --- | --- | --- | --- | --- | --- | --- | --- | --- | --- | --- | --- | --- | --- | --- | --- | --- | --- |
| CCOC(N)=O | Not Active | Not Active | Not Active | Not Active | Not Active | Not Active | Not Active | – | – | – | – | – | – | – | – | – | – |
| COc1ccc(CN2CCNCC2)c(OC)c1OC [TRIMETAZIDINE] | Not Active | Not Active | Not Active | Not Active | Not Active | Not Active | Not Active | – | – | – | – | – | – | – | – | – | – |
| CC(=O)O[C@H]1C[C@@H]2CC[C@@H]3[C@H](CC[C@@]4(C)[C@H]3C[C@H]([N+]3(C)CCCCC3)[C@@H]4OC(C)=O)[C@@]2(C)C[C@@H]1N1CCCCC1.[Br-] [VECURONIUM BROMIDE] | Not Active | Not Active | Not Active | Not Active | Not Active | Not Active | Not Active | – | – | – | – | – | – | – | – | – | – |
| C[C@@H]1C[C@H]2[C@@H]3CCC4=CC(=O)C=C[C@]4(C)C3=CC[C@]2(C)[C@H]1C(=O)CN1CCN(c2cc(N3CCCC3)nc(N3CCCC3)n2)CC1 [TIRILAZAD] | Not Active | Not Active | Not Active | Not Active | Not Active | – | – | 7.41 | 20.4 | – | – | – | – | – | – | – | – |
| CC(C)OC(=O)C(C)(C)Oc1ccc(C(=O)c2ccc(Cl)cc2)cc1 [FENOFIBRATE] | Not Active | Not Active | Not Active | Not Active | Not Active | Not Active | Not Active | – | – | – | – | – | – | – | – | – | – |
| C[C@@H](O)[C@H]1C(=O)N2C(C(=O)O)=C(S[C@@H]3CN[C@H](C(=O)N(C)C)C3)[C@H](C)[C@H]12 [MEROPENEM] | Not Active | Not Active | Not Active | Not Active | Not Active | Not Active | Not Active | – | – | – | – | – | – | – | – | – | – |
| CC[C@@H](CO)NC(=O)[C@@H]1C=C2c3cccc4c3c(cn4C)C[C@H]2N(C)C1 [METHYSERGIDE] | – | Not Active | Not Active | Not Active | Not Active | Not Active | Not Active | – | – | – | – | – | – | – | – | – | – |
| CC(C)(C)NC[C@H](O)COc1nsnc1N1CCOCC1 [TIMOLOL] | – | Not Active | Not Active | Not Active | Not Active | Not Active | Not Active | – | – | – | – | – | – | – | – | – | – |
| CCN(CC)CC#CCOC(=O)C(O)(c1ccccc1)C1CCCCC1 (stereo unspecified) [OXYBUTYNIN] | Not Active | Not Active | Not Active | – | Not Active | Not Active | Not Active | – | – | – | – | – | – | – | – | – | – |
| O=c1[nH]c2ccccc2n1CCCN1CCC(n2c(=O)[nH]c3cc(Cl)ccc32)CC1 [DOMPERIDONE] | Not Active | Not Active | Not Active | Not Active | Not Active | Not Active | Not Active | – | – | – | – | – | – | – | – | – | – |
| CC1=C(CC(=O)O)c2cc(F)ccc2/C1=C\c1ccc(S(C)(=O)=O)cc1 [EXISULIND] | Not Active | Not Active | Not Active | Not Active | Not Active | Not Active | Not Active | – | – | – | – | – | – | – | – | – | – |
| COc1ncnc(NS(=O)(=O)c2ccc(N)cc2)c1OC [SULFADOXINE] | Not Active | Not Active | Not Active | Not Active | Not Active | Not Active | Not Active | – | – | – | – | – | – | – | – | – | – |
| CC(=O)Nc1nnc(S(N)(=O)=O)s1 [ACETAZOLAMIDE] | Not Active | Not Active | Not Active | Not Active | Not Active | Not Active | Not Active | – | – | – | – | – | – | – | – | – | – |
| CO[C@H]1C[C@@H]2CC[C@@H](C)[C@@](O)(O2)C(=O)C(=O)N2CCCC[C@H]2C(=O)O[C@H]([C@H](C)C[C@@H]2CC[C@@H](O)[C@H](OC)C2)CC(=O)[C@H](C)/C=C(\C)[C@@H](O)[C@@H](OC)C(=O)[C@H](C)C[C@H](C)/C=C/C=C/C=C/1C [SIROLIMUS] | Not Active | Not Active | Not Active | Not Active | Not Active | Not Active | Not Active | – | – | – | – | – | – | – | – | – | – |
| OCCN1CCN(CCCN2c3ccccc3Sc3ccc(C(F)(F)F)cc32)CC1 [FLUPHENAZINE] | Not Active | Not Active | Not Active | Not Active | Not Active | Not Active | – | – | 40.1 | – | – | – | – | – | – | – | – |
| Cc1cn([C@H]2C[C@H](N=[N+]=[N-])[C@@H](CO)O2)c(=O)[nH]c1=O [ZIDOVUDINE] | Not Active | Not Active | Not Active | Not Active | Not Active | Not Active | – | – | – | – | – | – | – | – | – | – | – |
| THIMEROSAL | Not Active | Not Active | Not Active | Not Active | Not Active | Not Active | Not Active | – | – | Not Active | Not Active | Not Active | Not Active | Not Active | Not Active | Not Active | – |
| NC[C@H]1O[C@H](O[C@H]2[C@H](O)[C@@H](O[C@H]3O[C@H](CO)[C@@H](O)[C@H](N)[C@H]3O)[C@H](N)C[C@@H]2N)[C@H](N)C[C@@H]1O [TOBRAMYCIN] | Not Active | Not Active | Not Active | Not Active | Not Active | Not Active | Not Active | – | – | – | – | – | – | – | – | – | – |
| O=P(O)(O)C(O)(Cc1cccnc1)P(=O)(O)O [RISEDRONIC ACID] | Not Active | Not Active | Not Active | Not Active | Not Active | Not Active | Not Active | – | – | – | – | – | – | – | – | – | – |
| Nc1ccc(S(=O)(=O)Nc2nccs2)cc1 [SULFATHIAZOLE] | Not Active | Not Active | Not Active | Not Active | Not Active | Not Active | Not Active | – | – | – | – | – | – | – | – | – | – |
| Nc1ccc(S(=O)(=O)Nc2ncccn2)cc1 [SULFADIAZINE] | Not Active | Not Active | Not Active | Not Active | Not Active | Not Active | Not Active | – | – | – | – | – | – | – | – | – | – |
| CN[C@@H]1[C@H](O)[C@H](NC)[C@H]2O[C@@]3(O)C(=O)C[C@@H](C)O[C@H]3O[C@@H]2[C@H]1O [SPECTINOMYCIN] | Not Active | Not Active | Not Active | Not Active | Not Active | Not Active | Not Active | – | – | – | – | – | – | – | – | – | – |
| COc1cc(N)nc2[nH]c(-c3ccc(F)cc3)c(-c3ccncc3)c12 | Not Active | Not Active | Not Active | Not Active | Not Active | – | – | – | – | – | – | – | – | – | – | – | – |
| CN(CCOc1ccc(CC2SC(=O)NC2=O)cc1)c1ccccn1 (stereo unspecified) [ROSIGLITAZONE] | Not Active | – | Not Active | Not Active | Not Active | Not Active | Not Active | – | – | – | – | – | – | – | – | – | 3.56 |
| C=C(C)[C@H]1Cc2c(ccc3c2O[C@@H]2COc4cc(OC)c(OC)cc4[C@@H]2C3=O)O1 [ROTENONE] | Not Active | Not Active | Not Active | Not Active | Not Active | Not Active | Not Active | – | – | – | – | – | – | – | – | – | – |
